This note sets out measurements from patent US20030050306A1, “Novel heteroaryl derivatives, their preparation and use” (H. Lundbeck A/S, priority 1999, published 2003).

As a reminder, the IC50 is the midpoint of a concentration-inhibition curve. Read a low IC50 as greater potency in that assay. Broadly, the inhibition is the drop in the measured response relative to a control, in per cent.

For test [1], the target named is T1, cloned human 5-HT1A receptors (Homo sapiens, UniProt P08908).
T1 construct: expressed in transfected cells; host or cells: HeLa cells (HA7)
T1 sequence (P08908 1-422): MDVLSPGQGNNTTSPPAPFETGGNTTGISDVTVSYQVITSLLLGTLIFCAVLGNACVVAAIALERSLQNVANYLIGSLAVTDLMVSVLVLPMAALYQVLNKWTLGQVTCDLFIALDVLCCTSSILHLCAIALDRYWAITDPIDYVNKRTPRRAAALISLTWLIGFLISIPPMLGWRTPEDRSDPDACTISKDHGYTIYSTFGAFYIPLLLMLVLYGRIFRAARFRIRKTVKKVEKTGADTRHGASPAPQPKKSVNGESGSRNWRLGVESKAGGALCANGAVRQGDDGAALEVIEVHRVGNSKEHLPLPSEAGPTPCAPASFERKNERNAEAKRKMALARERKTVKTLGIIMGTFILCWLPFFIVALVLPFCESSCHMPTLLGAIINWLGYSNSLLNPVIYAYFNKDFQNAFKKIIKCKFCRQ
Nature of the test: Inhibition of 3H-5-CT binding to human 5-HT1A receptors. The conditions noted are these: cloned human 5-HT1A receptors in HeLa cells (HA7); for inhibition at 0.1 µM: at 100 nM. How it is done: The affinity of the compounds of the invention to 5-HT1A receptors was determined by measuring the inhibition of binding of a radioactive ligand at 5-HT1A receptors as described in the following test:
Inhibition of ^3H-5-CT Binding to Human 5-HT1A Receptors
By this method the inhibition by drugs of the binding of the 5-HT1A agonist ^3H-5-carboxamido tryptamine (3H-5-CT) to cloned human 5-HT1A receptors stably expressed in transfected HeLa cells (HA7) (Fargin, A. et al, J. Biol. Chem., 1989, 264, 14848) is determined in vitro. The assay was performed as a modification of the method described by Harrington, M. A. et at, J. Pharmacol. Exp. Ther., 1994, 268, 1098. Human 5-HT1A receptors (40 μg of cell homogenate) were incubated for 15 minutes at 37° C. in 50 mM Tris buffer at pH 7.7 in the presence of ^3H-5-CT. Non-specific binding was determined by including 10 μM of metergoline. The reaction was terminated by rapid filtration through Unifilter GF/B filters on a Tomtec Cell Harvester. Filters were counted in a Packard Top Counter.

Test [2] concerns the target T2, human cloned dopamine D4.2 receptors (Homo sapiens, UniProt P21917, DEL265-296).
T2 construct: expressed in transfected cells; host or cells: CHO cells
T2 sequence (P21917 with tags, fused parts or gaps DEL265-296): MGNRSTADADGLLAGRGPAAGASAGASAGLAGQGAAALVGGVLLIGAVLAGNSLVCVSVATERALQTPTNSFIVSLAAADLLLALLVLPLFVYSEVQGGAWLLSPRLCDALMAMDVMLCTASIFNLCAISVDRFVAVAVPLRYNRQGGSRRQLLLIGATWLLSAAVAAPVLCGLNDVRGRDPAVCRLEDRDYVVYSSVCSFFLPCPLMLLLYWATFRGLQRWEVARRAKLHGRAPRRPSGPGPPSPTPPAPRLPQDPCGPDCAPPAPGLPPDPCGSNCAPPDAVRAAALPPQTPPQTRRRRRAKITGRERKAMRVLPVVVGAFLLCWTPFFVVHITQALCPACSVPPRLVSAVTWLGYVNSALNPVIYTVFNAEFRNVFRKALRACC
Nature of the test: Inhibition of the binding of 3H-YM-09151-2 to human dopamine D4 receptors. The conditions noted are these: human cloned dopamine D4.2 receptors in CHO-cells; for inhibition at 0.05 µM: at 50 nM. The procedure:
The compounds of the invention have also been tested for their affinity to dopamine D4 receptors in the following test.
Inhibition of the Binding of ^3H-YM-09151-2 to Human Dopamine D4 Receptors
By this method the inhibition by drugs of the binding of [^3H]YM-09151-2 (0.06 nM) to membranes of human cloned dopamine D4.2 receptors expressed in CHO-cells is determined in vitro. Method modified from NEN Life Science Products, Inc., technical data certificate PC2533-10/96.

As to `N#Cc1ccc(N2CCN(CCCOc3ccc(F)cc3Cl)CC2)c2c1OCCO2` [Compound 5ck, 8-{4-[3-(2-chloro-4-fluorophenoxy)-propyl]-piperazin-1-yl}-2,3-dihydro-benzo[1,4]dioxine-5-carbonitrile], the half-maximal inhibitory concentration (IC50) in test [1] stood at 180 nM. Also, in test [2], the inhibition at 0.05 µM amounted to 77%.
With `Fc1ccc(OCCCCN2CCN(c3cccc4ccsc34)CC2)c(Cl)c1` [Compound 5bc, 1-Benzo[b]thiophen-7-yl-4-[4-(2-chloro-4-fluoro-phenoxy)-butyl]-piperazine], the IC50 in test [1] turned out to be 53 nM; in test [2] it was 1.9 nM.
As to `COc1ccccc1SCCCCN1CCN(c2cccc3c2OCCO3)CC1` [Compound 7bm, 1-(2,3-Dihydro-benzo[1,4]dioxin-5-yl)-4-[4-(2-methoxy-phenylsulfanyl)-butyl]-piperazine], in test [1], the inhibition at 0.1 µM turned out to be 95%. Further, the inhibition at 0.05 µM in test [2] is 83%.
In the case of `Clc1cccc(Cl)c1SCCCN1CCN(c2cccc3c2OCCO3)CC1` [Compound 5aw, 1-[3-(2,6-Dichloro-phenylsulfanyl)-propyl]-4-(2,3-dihydro-benzo[1,4]dioxin-5-yl)-piperazine], the IC50 turned out to be 1.7 nM in test [1] and 1.9 nM in test [2].
`Clc1cccc(SCCCN2CCN(c3cccc4c3OCCO4)CC2)c1` [Compound 7az, 1-[3-(3-Chloro-phenylsulfanyl)-propyl]-4-(2,3-dihydro-benzo[1,4]dioxin-5-yl)-piperazine]: in test [1], the inhibition at 0.1 µM amounted to 100%. Further, the inhibition at 0.05 µM in test [2] was 92%.
For `Fc1ccc(OCCCCN2CCN(c3cccc4ccsc34)CC2)c(Br)c1` [Compound 5bf, 1-Benzo[b]thiophen-7-yl-4-[4-(2-bromo-4-fluoro-phenoxy)-butyl]-piperazine], the results for the IC50 in test [1] and in test [2] were 35 nM and 3.1 nM, respectively.
Regarding “1-[3-(Bromo-trifluoromethyl-phenylsulfanyl)-propyl]-4-(2,3-dihydro-benzo[1,4]dioxin-5-yl)-piperazine [Compound 5ap]”, the 50% inhibitory concentration (IC50) is 6.2 nM in test [1] and 6.3 nM in test [2].
Turning to `CC(C)c1ccccc1SCCCCN1CCN(c2cccc3c2OCCO3)CC1` [Compound 7bn, 1-(2,3-Dihydro-benzo[1,4]dioxin-5-yl)-4-[4-(2-isopropyl-phenylsulfanyl)-butyl]-piperazine], in test [1], the inhibition at 0.1 µM turned out to be 93%. The inhibition at 0.05 µM in test [2] worked out at 93%.
As for `CCc1ccccc1SCCCN1CCN(c2cccc3c2OCCO3)CC1` [Compound 7ax, 1-(2,3-Dihydro-benzo[1,4]dioxin-5-yl)-4-[3-(2-ethyl-phenylsulfanyl)-propyl]-piperazine], the IC50 in test [1] turned out to be 9.2 nM. In addition, the inhibition at 0.05 µM in test [2] was found to be 100%.
Turning to `CCc1ccccc1OCCN1CCN(c2cccc3c2OCCO3)CC1` [Compound 7ag, 1-(2,3-Dihydro-benzo[1,4]dioxin-5-yl)-4-[2-(2-ethyl-phenoxy)-ethyl]-piperazine], the inhibition at 0.1 µM in test [1] amounted to 79%. For the same compound, the inhibition at 0.05 µM in test [2] turned out to be 88%.
For the compound `Fc1cc(F)c(OCCCN2CCN(c3cccc4c3OCCO4)CC2)c(Br)c1` [Compound 5bo, 1-[3-(2-Bromo-4,6-difluoro-phenoxy)-propyl]-4-(2,3-dihydro-benzo[1,4]dioxin-5-yl)-piperazine], the figures for the 50% inhibitory concentration (IC50) in test [1] and in test [2] were 1.7 nM and 2.4 nM, respectively.
As to `Clc1ccc(SCCCCN2CCN(c3cccc4c3OCCO4)CC2)c(Cl)c1` [Compound 7ar, 1-[4-(2,4-Dichloro-phenylsulfanyl)-butyl]-4-(2,3-dihydro-benzo[1,4]dioxin-5-yl)-piperazine], the IC50 in test [1] stood at 3.8 nM. Also, in test [2], the inhibition at 0.05 µM was 99%.
`Fc1ccc(SCCCN2CCN(c3cccc4ccsc34)CC2)c(Cl)c1` [Compound 5ad, 1-Benzo[b]thiophen-7-yl-4-[3-(2-chloro-4-fluoro-phenylsulfanyl)-propyl]-piperazine] returned a half-inhibitory concentration (IC50) in test [2] of 6.6 nM.
As for `FC(F)(F)Oc1ccc(SCCCN2CCN(c3cccc4c3OCCO4)CC2)cc1` [Compound 7bj, 1-(2,3-Dihydro-benzo[1,4]dioxin-5-yl)-4-[3-(4-trifluoromethoxy-phenylsulfanyl)-propyl]-piperazine], the inhibition at 0.1 µM in test [1] was found to be 106%. In addition, the inhibition at 0.05 µM in test [2] turned out to be 92%.
On to `N#Cc1ccccc1OCCCN1CCN(c2cccc3c2OCCO3)CC1` [Compound 2d, 2-{3-[4-(2,3-Dihydro-benzo[1,4]dioxin-5-yl)-piperazin-1-yl]-propoxy}-benzonitrile], for which the results for the half-inhibitory concentration (IC50) in test [1] and in test [2] were 15 nM and 1.7 nM, respectively.
The corresponding values for `Fc1cc(Br)c(OCCCCN2CCN(c3cccc4c3OCCO4)CC2)c(Br)c1` [Compound 5by] are 2.5 nM and 4.3 nM.
For `Cc1ccccc1SCCCCN1CCN(c2cccc3c2OCCO3)CC1` [Compound 7bc, 1-(2,3-Dihydro-benzo[1,4]dioxin-5-yl)-4-(4-o-tolylsulfanyl-butyl)-piperazine], in test [1], the inhibition at 0.1 µM was determined as 82%. The inhibition at 0.05 µM in test [2] was 96%.
Consider `Brc1cccc(SCCCN2CCN(c3cccc4c3OCCO4)CC2)c1` [Compound 7bl, 1-(2,3-Dihydro-benzo[1,4]dioxin-5-yl)-4-[3-(3-bromo-phenylsulfanyl)-propyl]-piperazine], for which the inhibition at 0.1 µM in test [1] was 95%. In addition, the inhibition at 0.05 µM in test [2] was 102%.
Consider `CC1(C)Cc2cc(Cl)cc(N3CCN(CCCSc4c(Cl)cccc4Cl)CC3)c2O1` [Compound 5az, 1-(5-Chloro-2,2-dimethyl-2,3-dihydro-benzofuran-7-yl)-4-[3-(2,6-dichloro-phenylsulfanyl)-propyl]-piperazine], for which, in test [1], the inhibition at 0.1 µM amounted to 18%. In test [2], this compound registered an IC50 of 9.9 nM.
For `Clc1ccccc1OCCCN1CCN(c2cccc3c2OCCO3)CC1` [Compound 1a, 1-[3-(2-Chloro-phenoxy)-propyl]-4-(2,3-dihydro-benzo[1,4]dioxin-5-yl)-piperazine], the IC50 in test [1] came to 10 nM; in test [2] it was 1.1 nM.
For `N#Cc1ccc(OCCCCN2CCN(c3cccc4c3OCCO4)CC2)c(Cl)c1` [Compound 7bb, 3-Chloro-4-{4-[4-(2,3-dihydro-benzo[1,4]dioxin-5-yl)-piperazin-1-yl]-butoxy}-benzonitrile], in test [1], the inhibition at 0.1 µM turned out to be 101%. Moreover, the inhibition at 0.05 µM in test [2] is 94%.
The corresponding values for `Fc1ccccc1SCCN1CCN(c2cccc3c2OCCO3)CC1` [Compound 7aw, 1-(2,3-Dihydro-benzo[1,4]dioxin-5-yl)-4-[2-(2-fluoro-phenylsulfanyl)-ethyl]-piperazine] are 74% and 92%.
The corresponding values for `Clc1cccc(SCCCN2CCN(c3cccc4c3OCCO4)CC2)c1Cl` [Compound 7al, 1-[3-(2,3-Dichloro-phenylsulfanyl)-propyl]-4-(2,3-dihydro-benzo[1,4]dioxin-5-yl)-piperazine] are 98% and 97%.
In the case of `Clc1ccc(SCCN2CCN(c3cccc4c3OCCO4)CC2)cc1Cl` [Compound 3a, 1-[2-(3,4-Dichloro-phenylsulfanyl)-ethyl]-4-(2,3-dihydro-benzof[, 4]dioxin-5-yl)-piperazine], the IC50 is 76 nM in test [1] and 5.4 nM in test [2].
As to `Fc1ccc(SCCCN2CCN(c3cccc4ccsc34)CC2)c(Cl)c1` [Compound 2e, 1-Benzo[b]thiophen-7-yl-4-[3-(2-chloro-4-fluoro-phenylsulfanyl)-propyl]-piperazine], in test [2], the concentration for half-maximal inhibition (IC50) amounted to 5.4 nM.
As for `Fc1ccc(SCCCN2CCN(c3cccc4ccsc34)CC2)c(Cl)c1` [Compound 5ai, 1-Benzo[b]thiophen-7-yl-4-[3-(2-chloro-4-fluoro-phenylsulfanyl)-propyl]-piperazine], the 50% inhibitory concentration (IC50) in test [2] turned out to be 2.9 nM.
